In ChEMBL document CHEMBL3616432, “(+)-Dehydroabietylamine derivatives target triple-negative breast cancer” (Eur J Med Chem, 2015):
The source made the active and inactive calls. The calls are words filed in the database; no cut-off is given here.

Tested on: MDA-MB-231
Assay: Antiproliferative activity against human triple-negative MDA-MB-231 cells at 52 to 65 uM after 72 hrs by CellTiter-Glo assay
Type: functional, cell-based
Details: not given

Structure (SMILES) | Activity
Cc1nnsc1C(=O)NC[C@]1(C)CCC[C@]2(C)c3ccc(C(C)C)cc3CC[C@@H]12 | inactive
Cc1csc(C(=O)NC[C@]2(C)CCC[C@]3(C)c4ccc(C(C)C)cc4CC[C@@H]23)c1 | inactive
CC(C)c1ccc2c(c1)CC[C@H]1[C@](C)(CNC(=O)CSc3ccccc3)CCC[C@]21C | inactive
CC(C)c1ccc2c(c1)CC[C@H]1[C@](C)(CNC(=O)c3c(Cl)cc(Cl)cc3Cl)CCC[C@]21C | inactive
CC(C)c1ccc2c(c1)CC[C@H]1[C@](C)(CNC(=O)c3ccc(Cl)cc3Cl)CCC[C@]21C | inactive
CC(C)c1ccc2c(c1)CC[C@H]1[C@](C)(CNC(=O)c3ccc(C(F)(F)F)cc3)CCC[C@]21C | inactive
COc1cccc(C(=O)NC[C@]2(C)CCC[C@]3(C)c4ccc(C(C)C)cc4CC[C@@H]23)c1 | inactive
CC(C)c1ccc2c(c1)CC[C@H]1[C@](C)(CNC(=O)[C@@H](C)c3ccccc3)CCC[C@]21C | inactive
CC(C)c1ccc2c(c1)CC[C@H]1[C@](C)(CNC(=O)C3CC4C=CC3C4)CCC[C@]21C (stereo not given in full) | inactive
CC(C)c1ccc2c(c1)CC[C@H]1[C@](C)(CNC(=O)c3ccc(Cl)c([N+](=O)[O-])c3)CCC[C@]21C | inactive
CC(C)c1ccc2c(c1)CC[C@H]1[C@](C)(CNC(=O)c3ccc(-c4ccccc4)cc3)CCC[C@]21C | inactive
CC(C)c1ccc2c(c1)CC[C@H]1[C@](C)(CNC(=O)C3CCCC3)CCC[C@]21C | inactive
CC(C)c1ccc2c(c1)CC[C@H]1[C@](C)(CNC(=O)c3cc4ccccc4o3)CCC[C@]21C | inactive
CC(C)c1ccc2c(c1)CC[C@H]1[C@](C)(CNC(=O)CC3CCCC3)CCC[C@]21C | inactive
CC(C)c1ccc2c(c1)CC[C@H]1[C@](C)(CNC(=O)[C@@H]3C[C@H]3c3ccccc3)CCC[C@]21C | inactive
CC(C)c1ccc2c(c1)CC[C@H]1[C@](C)(CNC(=O)c3cccs3)CCC[C@]21C | inactive
COc1ccc(C(=O)NC[C@]2(C)CCC[C@]3(C)c4ccc(C(C)C)cc4CC[C@@H]23)cc1 | inactive
CC(C)c1ccc2c(c1)CC[C@H]1[C@](C)(CNC(=O)c3ccc(C#N)cc3)CCC[C@]21C | inactive

Species on record: Homo sapiens
Assay: Antiproliferative activity against human ER-positive MA11 cells at 52 to 65 uM after 72 hrs by CellTiter-Glo assay
Type: functional
Details: not given

Structure (SMILES) | Activity
Cc1nnsc1C(=O)NC[C@]1(C)CCC[C@]2(C)c3ccc(C(C)C)cc3CC[C@@H]12 | inactive
Cc1csc(C(=O)NC[C@]2(C)CCC[C@]3(C)c4ccc(C(C)C)cc4CC[C@@H]23)c1 | inactive
CC(C)c1ccc2c(c1)CC[C@H]1[C@](C)(CNC(=O)CSc3ccccc3)CCC[C@]21C | inactive
CC(C)c1ccc2c(c1)CC[C@H]1[C@](C)(CNC(=O)c3c(Cl)cc(Cl)cc3Cl)CCC[C@]21C | inactive
CC(C)c1ccc2c(c1)CC[C@H]1[C@](C)(CNC(=O)c3ccc(Cl)cc3Cl)CCC[C@]21C | inactive
CC(C)c1ccc2c(c1)CC[C@H]1[C@](C)(CNC(=O)c3ccc(C(F)(F)F)cc3)CCC[C@]21C | inactive
COc1cccc(C(=O)NC[C@]2(C)CCC[C@]3(C)c4ccc(C(C)C)cc4CC[C@@H]23)c1 | inactive
CC(C)c1ccc2c(c1)CC[C@H]1[C@](C)(CNC(=O)[C@@H](C)c3ccccc3)CCC[C@]21C | inactive
CC(C)c1ccc2c(c1)CC[C@H]1[C@](C)(CNC(=O)C3CC4C=CC3C4)CCC[C@]21C (stereo not given in full) | inactive
CC(C)c1ccc2c(c1)CC[C@H]1[C@](C)(CNC(=O)c3ccc(Cl)c([N+](=O)[O-])c3)CCC[C@]21C | inactive
CC(C)c1ccc2c(c1)CC[C@H]1[C@](C)(CNC(=O)c3ccc(-c4ccccc4)cc3)CCC[C@]21C | inactive
CC(C)c1ccc2c(c1)CC[C@H]1[C@](C)(CNC(=O)C3CCCC3)CCC[C@]21C | inactive
CC(C)c1ccc2c(c1)CC[C@H]1[C@](C)(CNC(=O)c3cc4ccccc4o3)CCC[C@]21C | inactive
CC(C)c1ccc2c(c1)CC[C@H]1[C@](C)(CNC(=O)CC3CCCC3)CCC[C@]21C | inactive
CC(C)c1ccc2c(c1)CC[C@H]1[C@](C)(CNC(=O)[C@@H]3C[C@H]3c3ccccc3)CCC[C@]21C | inactive
CC(C)c1ccc2c(c1)CC[C@H]1[C@](C)(CNC(=O)c3cccs3)CCC[C@]21C | inactive
COc1ccc(C(=O)NC[C@]2(C)CCC[C@]3(C)c4ccc(C(C)C)cc4CC[C@@H]23)cc1 | inactive
CC(C)c1ccc2c(c1)CC[C@H]1[C@](C)(CNC(=O)c3ccc(C#N)cc3)CCC[C@]21C | inactive

Tested on: MCF7
Assay: Antiproliferative activity against human ER-positive MCF7 cells at 52 to 65 uM after 72 hrs by CellTiter-Glo assay
Type: functional, cell-based
Details: not given

Structure (SMILES) | Activity
Cc1nnsc1C(=O)NC[C@]1(C)CCC[C@]2(C)c3ccc(C(C)C)cc3CC[C@@H]12 | inactive
Cc1csc(C(=O)NC[C@]2(C)CCC[C@]3(C)c4ccc(C(C)C)cc4CC[C@@H]23)c1 | inactive
CC(C)c1ccc2c(c1)CC[C@H]1[C@](C)(CNC(=O)CSc3ccccc3)CCC[C@]21C | inactive
CC(C)c1ccc2c(c1)CC[C@H]1[C@](C)(CNC(=O)c3c(Cl)cc(Cl)cc3Cl)CCC[C@]21C | inactive
CC(C)c1ccc2c(c1)CC[C@H]1[C@](C)(CNC(=O)c3ccc(Cl)cc3Cl)CCC[C@]21C | inactive
CC(C)c1ccc2c(c1)CC[C@H]1[C@](C)(CNC(=O)c3ccc(C(F)(F)F)cc3)CCC[C@]21C | inactive
COc1cccc(C(=O)NC[C@]2(C)CCC[C@]3(C)c4ccc(C(C)C)cc4CC[C@@H]23)c1 | inactive
CC(C)c1ccc2c(c1)CC[C@H]1[C@](C)(CNC(=O)[C@@H](C)c3ccccc3)CCC[C@]21C | inactive
CC(C)c1ccc2c(c1)CC[C@H]1[C@](C)(CNC(=O)C3CC4C=CC3C4)CCC[C@]21C (stereo not given in full) | inactive
CC(C)c1ccc2c(c1)CC[C@H]1[C@](C)(CNC(=O)c3ccc(Cl)c([N+](=O)[O-])c3)CCC[C@]21C | inactive
CC(C)c1ccc2c(c1)CC[C@H]1[C@](C)(CNC(=O)c3ccc(-c4ccccc4)cc3)CCC[C@]21C | inactive
CC(C)c1ccc2c(c1)CC[C@H]1[C@](C)(CNC(=O)C3CCCC3)CCC[C@]21C | inactive
CC(C)c1ccc2c(c1)CC[C@H]1[C@](C)(CNC(=O)c3cc4ccccc4o3)CCC[C@]21C | inactive
CC(C)c1ccc2c(c1)CC[C@H]1[C@](C)(CNC(=O)CC3CCCC3)CCC[C@]21C | inactive
CC(C)c1ccc2c(c1)CC[C@H]1[C@](C)(CNC(=O)[C@@H]3C[C@H]3c3ccccc3)CCC[C@]21C | inactive
CC(C)c1ccc2c(c1)CC[C@H]1[C@](C)(CNC(=O)c3cccs3)CCC[C@]21C | inactive
COc1ccc(C(=O)NC[C@]2(C)CCC[C@]3(C)c4ccc(C(C)C)cc4CC[C@@H]23)cc1 | inactive
CC(C)c1ccc2c(c1)CC[C@H]1[C@](C)(CNC(=O)c3ccc(C#N)cc3)CCC[C@]21C | inactive

Tested on: HEK293
Assay: Cytotoxicity against HEK293 cells at 52 to 65 uM after 72 hrs by CellTiter-Glo assay
Type: cell-based
Details: human, hek293, 72 h

Structure (SMILES) | Activity
Cc1nnsc1C(=O)NC[C@]1(C)CCC[C@]2(C)c3ccc(C(C)C)cc3CC[C@@H]12 | Non-toxic
Cc1csc(C(=O)NC[C@]2(C)CCC[C@]3(C)c4ccc(C(C)C)cc4CC[C@@H]23)c1 | Non-toxic
CC(C)c1ccc2c(c1)CC[C@H]1[C@](C)(CNC(=O)CSc3ccccc3)CCC[C@]21C | Non-toxic
CC(C)c1ccc2c(c1)CC[C@H]1[C@](C)(CNC(=O)c3c(Cl)cc(Cl)cc3Cl)CCC[C@]21C | Non-toxic
CC(C)c1ccc2c(c1)CC[C@H]1[C@](C)(CNC(=O)c3ccc(Cl)cc3Cl)CCC[C@]21C | Non-toxic
CC(C)c1ccc2c(c1)CC[C@H]1[C@](C)(CNC(=O)c3ccc(C(F)(F)F)cc3)CCC[C@]21C | Non-toxic
COc1cccc(C(=O)NC[C@]2(C)CCC[C@]3(C)c4ccc(C(C)C)cc4CC[C@@H]23)c1 | Non-toxic
CC(C)c1ccc2c(c1)CC[C@H]1[C@](C)(CNC(=O)[C@@H](C)c3ccccc3)CCC[C@]21C | Non-toxic
CC(C)c1ccc2c(c1)CC[C@H]1[C@](C)(CNC(=O)C3CC4C=CC3C4)CCC[C@]21C (stereo not given in full) | Non-toxic
CC(C)c1ccc2c(c1)CC[C@H]1[C@](C)(CNC(=O)c3ccc(Cl)c([N+](=O)[O-])c3)CCC[C@]21C | Non-toxic
CC(C)c1ccc2c(c1)CC[C@H]1[C@](C)(CNC(=O)c3ccc(-c4ccccc4)cc3)CCC[C@]21C | Non-toxic
CC(C)c1ccc2c(c1)CC[C@H]1[C@](C)(CNC(=O)C3CCCC3)CCC[C@]21C | Non-toxic
CC(C)c1ccc2c(c1)CC[C@H]1[C@](C)(CNC(=O)c3cc4ccccc4o3)CCC[C@]21C | Non-toxic
CC(C)c1ccc2c(c1)CC[C@H]1[C@](C)(CNC(=O)CC3CCCC3)CCC[C@]21C | Non-toxic
CC(C)c1ccc2c(c1)CC[C@H]1[C@](C)(CNC(=O)[C@@H]3C[C@H]3c3ccccc3)CCC[C@]21C | Non-toxic
CC(C)c1ccc2c(c1)CC[C@H]1[C@](C)(CNC(=O)c3cccs3)CCC[C@]21C | Non-toxic
COc1ccc(C(=O)NC[C@]2(C)CCC[C@]3(C)c4ccc(C(C)C)cc4CC[C@@H]23)cc1 | Non-toxic
CC(C)c1ccc2c(c1)CC[C@H]1[C@](C)(CNC(=O)c3ccc(C#N)cc3)CCC[C@]21C | Non-toxic

Tested on: HepG2
Assay: Cytotoxicity against human HepG2 cells at 52 to 65 uM after 72 hrs by CellTiter-Glo assay
Type: cell-based
Details: hepg2, 72 h

Structure (SMILES) | Activity
Cc1nnsc1C(=O)NC[C@]1(C)CCC[C@]2(C)c3ccc(C(C)C)cc3CC[C@@H]12 | Non-toxic
Cc1csc(C(=O)NC[C@]2(C)CCC[C@]3(C)c4ccc(C(C)C)cc4CC[C@@H]23)c1 | Non-toxic
CC(C)c1ccc2c(c1)CC[C@H]1[C@](C)(CNC(=O)CSc3ccccc3)CCC[C@]21C | Non-toxic
CC(C)c1ccc2c(c1)CC[C@H]1[C@](C)(CNC(=O)c3c(Cl)cc(Cl)cc3Cl)CCC[C@]21C | Non-toxic
CC(C)c1ccc2c(c1)CC[C@H]1[C@](C)(CNC(=O)c3ccc(Cl)cc3Cl)CCC[C@]21C | Non-toxic
CC(C)c1ccc2c(c1)CC[C@H]1[C@](C)(CNC(=O)c3ccc(C(F)(F)F)cc3)CCC[C@]21C | Non-toxic
COc1cccc(C(=O)NC[C@]2(C)CCC[C@]3(C)c4ccc(C(C)C)cc4CC[C@@H]23)c1 | Non-toxic
CC(C)c1ccc2c(c1)CC[C@H]1[C@](C)(CNC(=O)[C@@H](C)c3ccccc3)CCC[C@]21C | Non-toxic
CC(C)c1ccc2c(c1)CC[C@H]1[C@](C)(CNC(=O)C3CC4C=CC3C4)CCC[C@]21C (stereo not given in full) | Non-toxic
CC(C)c1ccc2c(c1)CC[C@H]1[C@](C)(CNC(=O)c3ccc(Cl)c([N+](=O)[O-])c3)CCC[C@]21C | Non-toxic
CC(C)c1ccc2c(c1)CC[C@H]1[C@](C)(CNC(=O)c3ccc(-c4ccccc4)cc3)CCC[C@]21C | Non-toxic
CC(C)c1ccc2c(c1)CC[C@H]1[C@](C)(CNC(=O)C3CCCC3)CCC[C@]21C | Non-toxic
CC(C)c1ccc2c(c1)CC[C@H]1[C@](C)(CNC(=O)c3cc4ccccc4o3)CCC[C@]21C | Non-toxic
CC(C)c1ccc2c(c1)CC[C@H]1[C@](C)(CNC(=O)CC3CCCC3)CCC[C@]21C | Non-toxic
CC(C)c1ccc2c(c1)CC[C@H]1[C@](C)(CNC(=O)[C@@H]3C[C@H]3c3ccccc3)CCC[C@]21C | Non-toxic
CC(C)c1ccc2c(c1)CC[C@H]1[C@](C)(CNC(=O)c3cccs3)CCC[C@]21C | Non-toxic
COc1ccc(C(=O)NC[C@]2(C)CCC[C@]3(C)c4ccc(C(C)C)cc4CC[C@@H]23)cc1 | Non-toxic
CC(C)c1ccc2c(c1)CC[C@H]1[C@](C)(CNC(=O)c3ccc(C#N)cc3)CCC[C@]21C | Non-toxic
